Test results: patent US11524963B2, “Substituted pyrazolo[3,4-d]pyrimidines as RET kinase inhibitors” (Array Biopharma Inc., priority 2018, dated 2022)
pIC50: −log10 of the molar value. Structures can show the parent of a compound that is named as a salt.

Experiments:
RET kinase Wild Type = RET kinase Wild Type (Homo sapiens, UniProt P07949); experiment: RET Enzyme Assay (HTRF KinEASE-TK), Wild Type; format: biochemical
RET kinase G810R = RET kinase G810R (Homo sapiens, UniProt P07949, G810R); experiment: RET Enzyme Assay (HTRF KinEASE-TK), G810R; format: biochemical
RET kinase G810R, sequence (P07949 29-1114 G810R): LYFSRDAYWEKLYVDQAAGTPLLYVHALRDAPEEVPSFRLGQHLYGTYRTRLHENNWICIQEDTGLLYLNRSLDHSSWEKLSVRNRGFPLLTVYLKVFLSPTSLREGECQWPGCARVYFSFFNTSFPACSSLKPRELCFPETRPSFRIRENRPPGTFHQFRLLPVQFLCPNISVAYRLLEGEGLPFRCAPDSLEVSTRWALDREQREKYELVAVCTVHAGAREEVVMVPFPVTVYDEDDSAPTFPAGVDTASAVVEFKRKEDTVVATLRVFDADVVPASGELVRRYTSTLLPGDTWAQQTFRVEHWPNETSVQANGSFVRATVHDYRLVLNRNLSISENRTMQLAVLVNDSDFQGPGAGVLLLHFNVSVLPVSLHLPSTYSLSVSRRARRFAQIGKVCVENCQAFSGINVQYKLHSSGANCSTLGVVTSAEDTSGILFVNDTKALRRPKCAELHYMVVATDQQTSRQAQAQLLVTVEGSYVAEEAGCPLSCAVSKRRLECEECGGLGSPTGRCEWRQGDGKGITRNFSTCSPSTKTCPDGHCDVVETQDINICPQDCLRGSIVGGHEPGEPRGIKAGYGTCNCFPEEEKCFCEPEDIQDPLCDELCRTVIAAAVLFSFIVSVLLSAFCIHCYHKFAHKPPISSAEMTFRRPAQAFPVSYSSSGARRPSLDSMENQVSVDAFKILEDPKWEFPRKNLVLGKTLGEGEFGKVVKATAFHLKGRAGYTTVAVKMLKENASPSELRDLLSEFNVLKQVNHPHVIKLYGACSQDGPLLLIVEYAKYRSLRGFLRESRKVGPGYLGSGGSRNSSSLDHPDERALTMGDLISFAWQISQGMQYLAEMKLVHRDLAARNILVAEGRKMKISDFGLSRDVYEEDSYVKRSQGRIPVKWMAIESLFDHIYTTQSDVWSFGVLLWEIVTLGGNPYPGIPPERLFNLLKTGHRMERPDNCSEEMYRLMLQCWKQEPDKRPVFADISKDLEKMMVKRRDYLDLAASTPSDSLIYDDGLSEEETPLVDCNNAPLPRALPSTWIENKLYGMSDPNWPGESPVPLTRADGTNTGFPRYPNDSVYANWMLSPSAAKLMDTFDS

RET kinase V804M = RET kinase V804M (Homo sapiens, UniProt P07949, V804M); experiment: RET Enzyme Assay (HTRF KinEASE-TK), V804M; format: biochemical
RET kinase V804M, sequence (P07949 29-1114 V804M): as the sequence (P07949 29-1114 G810R) above, with V776M, R782G counted along it

RET kinase G810S = RET kinase G810S (Homo sapiens, UniProt P07949, G810S); experiment: RET Enzyme Assay (HTRF KinEASE-TK), G810S; format: biochemical
RET kinase G810S, sequence (P07949 29-1114 G810S): as the sequence (P07949 29-1114 G810R) above, with R782S counted along it

RET kinase M918T = RET kinase M918T (Homo sapiens, UniProt P07949, M918T); experiment: RET Enzyme Assay (HTRF KinEASE-TK), M918T; format: biochemical
RET kinase M918T, sequence (P07949 29-1114 M918T): as the sequence (P07949 29-1114 G810R) above, with R782G, M890T counted along it

[1] = target: T1, HEK-293 cells expressing a Kif5b-RET fusion protein (Homo sapiens, UniProt P07949); experiment: RET Cell Assay (phospho-RET Tyr1062); format: cell-based; conditions: 1 hour with compound, phospho-RET(Tyr1062) normalized to GAPDH, read-out: KIF5B-RET pTYR1062 Cell IC50
T1 construct: expressed in transfected cells; host or cells: HEK-293; the other entry of the earlier key: KIF5B (P33176, Kinesin-1 heavy chain)
T1 sequence (P07949 713-1063 limits assumed): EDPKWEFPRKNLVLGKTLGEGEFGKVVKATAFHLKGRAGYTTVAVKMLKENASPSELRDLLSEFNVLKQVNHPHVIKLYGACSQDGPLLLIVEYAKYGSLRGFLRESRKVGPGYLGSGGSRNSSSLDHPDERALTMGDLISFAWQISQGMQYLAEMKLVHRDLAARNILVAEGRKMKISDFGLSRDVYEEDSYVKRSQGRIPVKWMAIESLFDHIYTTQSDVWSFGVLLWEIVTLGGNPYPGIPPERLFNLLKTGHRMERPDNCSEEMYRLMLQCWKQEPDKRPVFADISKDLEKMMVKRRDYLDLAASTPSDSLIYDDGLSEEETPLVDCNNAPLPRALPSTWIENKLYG
Method: The cellular potency of compounds inhibiting RET kinase were determined in HEK-293 cells expressing a Kif5b-RET fusion protein. Briefly, HEK-293 cells expressing a Kif5b-RET fusion protein were plated at 50K cells/well in 96 well poly-D-Lysine coated plates the day prior to the assay. The cells were incubated for 1 hour with test compound in DMEM (Dulbecco's Modified Eagle Medium) at a final DMSO concentration of 0.5%. […] After 1 hour the media was removed, the cells were fixed with 3.8% formaldehyde for 20 min, washed with PBS, and permeabilized for 10 min with 100% methanol. […] All antibodies were diluted in LI-COR Block containing 0.05% Tween. The plates were washed with PBS-0.05% Tween20, 100 μL PBS is added to each well, and the plates were read on a LI-COR Aerius fluorescent plate reader. The phospho-RET signal was normalized to the GAPDH signal. 100 POC (percent of control) was determined using no test compounds and 0 POC was determined using 1 μM of a control inhibitor. The POC values were fit to a 4 parameter logistic curve. The IC50 value is the point where the curve crosses 50 POC.

RET kinase Wild Type, sequence (P07949 29-1114): as the sequence (P07949 29-1114 G810R) above, with R782G counted along it

Structure (SMILES)	pIC50 (RET kinase Wild Type)	pIC50 (RET kinase G810R)	pIC50 (RET kinase V804M)	pIC50 (RET kinase G810S)	pIC50 (RET kinase M918T)	pIC50 [1]
CC(C)n1nc(-n2cc(C3CC3)cn2)c2c(N)ncnc21 [Example 34, 3-(4-cyclopropyl-1H-pyrazol-1-yl)-1-isopropyl-1H-pyrazolo[3,4-d]pyrimidin-4-amine]	7.43					
CC(C)n1nc(-c2cc(-c3ccccc3)nn2C2CCCCO2)c2c(N)ncnc21 (stereo not drawn) [Example 24, 1-isopropyl-3-(3-phenyl-1-(tetrahydro-2H-pyran-2-yl)-1H-pyrazol-5-yl)-1H-pyrazolo[3,4-d]pyrimidin-4-amine]	8.06	7.26		7.27	8.01	
CC(C)n1nc(C2CC2)cc1-c1nn(C(C)C)c2ncnc(N)c12 [Example 27, 3-(3-cyclopropyl-1-isopropyl-1H-pyrazol-5-yl)-1-isopropyl-1H-pyrazolo[3,4-d]pyrimidin-4-amine]	7.94	7.37		6.39	7.65	
CC(C)n1nc(-c2noc(C3CC3)c2-c2ccccc2)c2c(N)ncnc21 [Example 6, 3-(5-cyclopropyl-4-phenylisoxazol-3-yl)-1-isopropyl-1H-pyrazolo[3,4-d]pyrimidin-4-amine]	8.33	8.00	7.62	7.58	8.35	6.31
CC(=O)n1nc(-c2nn(C(C)C)c3ncnc(N)c23)cc1C [Example 32, 1-(3-(4-amino-1-isopropyl-1H-pyrazolo[3,4-d]pyrimidin-3-yl)-5-methyl-1H-pyrazol-1-yl)ethan-1-one]	7.35					
CC(C)n1nc(-c2noc(C3CC3)c2C2=CCOCC2)c2c(N)ncnc21 [Example 4, 3-(5-cyclopropyl-4-(3,6-dihydro-2H-pyran-4-yl)isoxazol-3-yl)-1-isopropyl-1H-pyrazolo[3,4-d]pyrimidin-4-amine]	8.28	7.87	7.54	7.43	8.12	
CC(C)n1nc(-c2cc(C(F)(F)F)nn2C2CCCCO2)c2c(N)ncnc21 (stereo not drawn) [Example 25, 1-isopropyl-3-(1-(tetrahydro-2H-pyran-2-yl)-3-(trifluoromethyl)-1H-pyrazol-5-yl)-1H-pyrazolo[3,4-d]pyrimidin-4-amine]	8.08	7.31		7.10	7.79	
CC(C)n1nc(-c2noc(C3CC3)c2Br)c2c(N)ncnc21 [Example 1, 3-(4-bromo-5-cyclopropylisoxazol-3-yl)-1-isopropyl-1H-pyrazolo[3,4-d]pyrimidin-4-amine]	8.68	8.42	8.24	7.93	8.74	6.58
CC(C)c1cc(-c2nn(C(C)C)c3ncnc(N)c23)n(C2CCCCO2)n1 (stereo not drawn) [Example 20, 1-isopropyl-3-(3-isopropyl-1-(tetrahydro-2H-pyran-2-yl)-1H-pyrazol-5-yl)-1H-pyrazolo[3,4-d]pyrimidin-4-amine]	7.68	7.15		6.65	7.33	
CC(C)n1nc(-c2noc(C3CC3)c2C2=COCCC2)c2c(N)ncnc21 [Example 10, 3-(5-cyclopropyl-4-(3,4-dihydro-2H-pyran-5-yl)isoxazol-3-yl)-1-isopropyl-1H-pyrazolo[3,4-d]pyrimidin-4-amine]	8.82	8.39	7.86	7.87	8.66	6.70
CC(C)n1nc(-c2noc(C3CC3)c2-c2cccnc2)c2c(N)ncnc21 [Example 7, 3-(5-cyclopropyl-4-(pyridin-3-yl)isoxazol-3-yl)-1-isopropyl-1H-pyrazolo[3,4-d]pyrimidin-4-amine]	8.15	8.08	7.28	7.41	8.06	
C=Cc1cc(-c2nn(C(C)C)c3ncnc(N)c23)[nH]n1 [Example 30, 1-isopropyl-3-(3-vinyl-1H-pyrazol-5-yl)-1H-pyrazolo[3,4-d]pyrimidin-4-amine hydrochloride]	7.18					
CC(C)n1nc(-c2nccn2C)c2c(N)ncnc21 [Example 33, 1-isopropyl-3-(1-methyl-1H-imidazol-2-yl)-1H-pyrazolo[3,4-d]pyrimidin-4-amine]	7.18					

Further molecules by rising pIC50 (RET kinase Wild Type), results first:

pIC50 (RET kinase Wild Type)	pIC50 (RET kinase G810R)	pIC50 (RET kinase V804M)	pIC50 (RET kinase G810S)	pIC50 (RET kinase M918T)	pIC50 [1]	Structure (SMILES)
6.42		6.56				Cc1cnn(C2CCCCO2)c1-c1nn(C(C)C)c2ncnc(N)c12 (stereo not drawn) [Example 28, 1-isopropyl-3-(4-methyl-1-(tetrahydro-2H-pyran-2-yl)-1H-pyrazol-5-yl)-1H-pyrazolo[3,4-d]pyrimidin-4-amine]
6.81						CC(C)n1nc(-c2cc(C(F)(F)F)[nH]n2)c2c(N)ncnc21 [Example 31, 1-isopropyl-3-(5-(trifluoromethyl)-1H-pyrazol-3-yl)-1H-pyrazolo[3,4-d]pyrimidin-4-amine dihydrochloride]
7.21						CC(C)n1nc(-c2cnn(C3CC3)c2)c2c(N)ncnc21 [Example 29, 3-(1-cyclopropyl-1H-pyrazol-4-yl)-1-isopropyl-1H-pyrazolo[3,4-d]pyrimidin-4-amine]
8.10	7.50		7.06	7.85		CC(C)n1nc(-c2cc(C3CC3)nn2C2CCCCC2)c2c(N)ncnc21 [Example 26, 3-(1-cyclohexyl-3-cyclopropyl-1H-pyrazol-5-yl)-1-isopropyl-1H-pyrazolo[3,4-d]pyrimidin-4-amine]
8.14						CC(C)n1nc(-c2c[nH]nn2)c2c(N)ncnc21 [Example 35, 1-isopropyl-3-(1H-1,2,3-triazol-4-yl)-1H-pyrazolo[3,4-d]pyrimidin-4-amine]
8.15	7.90	7.28	7.33	7.91		CC(C)n1nc(-c2noc(C3CC3)c2-c2cnn(C)c2)c2c(N)ncnc21 [Example 3, 3-(5-cyclopropyl-4-(1-methyl-1H-pyrazol-4-yl)isoxazol-3-yl)-1-isopropyl-1H-pyrazolo[3,4-d]pyrimidin-4-amine]
8.28	7.94	7.82	7.61	8.39		CC(C)n1nc(-c2noc(C3CC3)c2I)c2c(N)ncnc21 [Example 12, 3-(5-cyclopropyl-4-iodoisoxazol-3-yl)-1-isopropyl-1H-pyrazolo[3,4-d]pyrimidin-4-amine]
8.54	8.41	7.54	7.69	8.41		CC(C)n1nc(-c2noc(C3CC3)c2-c2ccncc2)c2c(N)ncnc21 [Example 8, 3-(5-cyclopropyl-4-(pyridin-4-yl)isoxazol-3-yl)-1-isopropyl-1H-pyrazolo[3,4-d]pyrimidin-4-amine]
8.57	8.15	7.69	7.93	8.49	6.98	CC(C)n1nc(-c2noc(C3CC3)c2C2=CCC(=O)CC2)c2c(N)ncnc21 [Example 5, 4-(3-(4-amino-1-isopropyl-1H-pyrazolo[3,4-d]pyrimidin-3-yl)-5-cyclopropylisoxazol-4-yl)cyclohex-3-en-1-one]
8.82	8.46	8.36	8.31	8.92	7.07	CC(C)n1nc(-c2noc(C3CC3)c2-c2ncccn2)c2c(N)ncnc21 [Example 11, 3-(5-cyclopropyl-4-(pyrimidin-2-yl)isoxazol-3-yl)-1-isopropyl-1H-pyrazolo[3,4-d]pyrimidin-4-amine]
8.96	8.36	8.51	8.37	9.00	7.38	CC(C)n1nc(-c2noc([C@@H](C)O)c2-c2ccccn2)c2c(N)ncnc21 [Example 18, (R)-1-(3-(4-amino-1-isopropyl-1H-pyrazolo[3,4-d]pyrimidin-3-yl)-4-(pyridin-2-yl)isoxazol-5-yl)ethan-1-ol]
